# Laboratory results as given in PubChem BioAssay (NCI).
#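 Five concentrations, 48 hours, 96-well plates. GI50 is the concentration that inhibits growth by half. The concentration for full growth arrest is given as TGI.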
# Legend:
# Assay in all cases: NCI anticancer screen, dose series, 48 h
# 786-0 renal = test system: 786-0 renal
# UO-31 renal = test system: UO-31 renal
# SK-OV-3 ovarian = test system: SK-OV-3 ovarian
# OVCAR-5 ovarian = test system: OVCAR-5 ovarian
# NCI-H460 lung = test system: NCI-H460 lung
# NCI-H226 lung = test system: NCI-H226 lung
# NCI/ADR-RES ovarian = test system: NCI/ADR-RES ovarian
# MOLT-4 leukemia = test system: MOLT-4 leukemia
# RPMI-8226 leukemia = test system: RPMI-8226 leukemia
# TK-10 renal = test system: TK-10 renal
Compound,GI50 (786-0 renal) [µM],TGI (786-0 renal) [µM],GI50 (UO-31 renal) [µM],TGI (UO-31 renal) [µM],GI50 (SK-OV-3 ovarian) [µM],TGI (SK-OV-3 ovarian) [µM],GI50 (OVCAR-5 ovarian) [µM],TGI (OVCAR-5 ovarian) [µM],GI50 (NCI-H460 lung) [µM],TGI (NCI-H460 lung) [µM],GI50 (NCI-H226 lung) [µM],TGI (NCI-H226 lung) [µM],GI50 (NCI/ADR-RES ovarian) [µM],TGI (NCI/ADR-RES ovarian) [µM],GI50 (MOLT-4 leukemia) [µM],TGI (MOLT-4 leukemia) [µM],GI50 (RPMI-8226 leukemia) [µM],TGI (RPMI-8226 leukemia) [µM],GI50 (TK-10 renal) [µM],TGI (TK-10 renal) [µM]
N#C/C(=C/C=C/c1cccc(Cl)c1)S(=O)c1ccccc1 (stereo not given),0.308,1.01,0.358,1.71,2.21,10.2,0.391,1.7,0.474,2.51,1.14,3.68,0.278,0.859,0.307,2.28,0.339,1,0.359,1.32
COc1c(OC2OC(C)C(O)C(O)C2O)c(OC)c2oc(-c3ccc(O)cc3)cc(=O)c2c1O (stereo not given),50.7,> 100,22.8,> 100,86.3,> 100,> 100,> 100,27.7,81.4,30.6,> 100,87.2,> 100,15.4,> 100,28.2,> 100,72.2,> 100
COc1ccc(N=c2nc3sc4cc(Cl)ccc4n3c(N)c2C#N)cc1,2.43,5.47,18.3,> 100,5.9,> 100,5.21,> 100,21.1,> 100,1.92,7.99,2.95,9.08,7.74,> 76.5,25,> 72.6,4.61,45.5
Cn1cc(-c2csc(-c3ccc(Cl)cc3)n2)c2cccnc21,16.3,32.4,13.6,38.6,15.9,39.2,14.2,32.7,16,34.4,14.8,43.6,15.8,34.4,12.4,38.6,12.3,78.6,12.4,31.1
COc1cc(C=NCC(=O)CSC(c2ccccc2)c2ccccc2)ccc1O,14.9,28.2,12.7,29.1,3.58,17.2,16.4,30.4,20.1,56.2,16.8,38.5,7.78,29.2,9.05,31.8,6.26,25.1,14.7,53.7
CC(=O)/C(=N\N=C(N)N)c1ccccc1,–,> 100,–,> 100,–,> 100,–,> 100,–,> 100,–,> 100,–,> 100,–,> 100,–,> 100,–,> 100
COC(=O)c1c(C(=O)O)c(-c2ccccc2)c(-c2ccccc2)c(-c2ccccc2)c1-c1ccccc1,> 100,> 100,14.7,43.5,> 100,> 100,> 100,> 100,> 100,> 100,> 100,> 100,> 100,> 100,> 100,> 100,88.8,> 100,> 100,> 100
CCOC(=O)c1sc(NC(=O)COc2ccc(/C=C3\CCc4cc(OC)ccc4C3=O)cc2)nc1C,11.5,24.7,1.78,9.64,18.7,45.3,8.97,24.6,14.3,28.7,13.3,27.3,8.49,37.5,1.76,15.3,0.684,6.64,3.34,21.4
CCOC(=O)C(Cc1cc(OC)c(CC(C(=O)OCC)C(=O)OCC)cc1OC)C(=O)OCC,–,> 100,–,> 100,–,> 100,–,> 100,–,> 100,–,> 100,–,> 100,–,> 100,–,> 100,–,> 100
